The record followed here is patent US20090170838A1, “Bicycloheteroaryl compounds as P2X7 modulators and uses thereof” (Renovis, Inc., priority 2005, published 2009).

Structures are written as SMILES.

The inhibition is how much of the control response was suppressed.

The target in the first test is T1, P2X7 receptor (Homo sapiens, UniProt Q99572).
T1 construct: host or cells: THP-1 cells differentiated with LPS and IFN-γ
T1 sequence (Q99572 1-595): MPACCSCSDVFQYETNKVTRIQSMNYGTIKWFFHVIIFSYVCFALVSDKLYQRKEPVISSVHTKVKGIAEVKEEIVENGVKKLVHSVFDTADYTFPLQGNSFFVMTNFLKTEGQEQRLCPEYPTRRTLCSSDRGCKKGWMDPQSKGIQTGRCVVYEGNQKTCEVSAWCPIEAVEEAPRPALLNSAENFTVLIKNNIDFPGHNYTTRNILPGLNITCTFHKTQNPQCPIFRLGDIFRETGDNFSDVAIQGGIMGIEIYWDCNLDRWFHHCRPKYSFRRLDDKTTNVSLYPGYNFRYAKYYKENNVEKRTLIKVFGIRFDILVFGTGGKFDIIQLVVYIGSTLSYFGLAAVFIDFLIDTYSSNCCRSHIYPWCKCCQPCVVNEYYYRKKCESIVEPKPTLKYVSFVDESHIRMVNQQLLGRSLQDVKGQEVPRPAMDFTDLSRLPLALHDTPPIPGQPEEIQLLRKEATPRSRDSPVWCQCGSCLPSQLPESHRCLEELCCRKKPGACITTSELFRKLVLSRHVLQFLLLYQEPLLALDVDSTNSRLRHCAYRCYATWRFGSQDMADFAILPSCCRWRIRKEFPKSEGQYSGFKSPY
The experiment in a line: IL-1β release assay (BzATP-stimulated, LPS/IFN-γ differentiated THP-1 cells, ELISA). The conditions noted are these: at 0.1 μM (asterisk symbols). The class given is cell-based. The method, then:
THP-1 cells (ATCC Cat # 285-IF-100) are plated in 96 well plates at a concentration of 200,000 cells per well and allowed to differentiate in RPMI-1640 media (ATCC Cat # 30-2001) containing 10% FBS, 100 IU/mL penicillin, 100 ug/mL streptomycin, 100 ng/mL LPS and 100 ng/mL IFN-γ for 16 hours. Following differentiation, the cells are treated for an additional 2 hours in RPMI-1640 media containing 100 IU/mL penicillin, 100 ug/mL streptomycin and fresh LPS at 100 ng/mL. The cells are then pretreated for 30 minutes with the compound of interest at the appropriate concentration in RPMI media containing 100 IU/mL penicillin, 100 ug/mL streptomycin. Following the pretreatment 2′,3′-O-(4-benzoylbenzoyl)-adenosine 5′-triphosphate (Sigma Aldrich Cat# B6396) is added to a final concentration of 250 uM and the cells incubated for an additional 45 minutes. 30 uL of cell supernatant is then collected and […] levels determined via ELISA (R&D systems Cat. # HSLB50) according to manufacturer's recommendations using the Tecan Safire plate reader. Background adjusted IL-1β levels of drug treated and non-treated cells are used to calculate the percent inhibition.
For the molecule `O=C(CC12CC3CC(CC(C3)C1)C2)Nc1cccc2c1CCN(CCCn1ccnc1)C2=O` [Compound 836], the inhibition at 0.1 µM is ≥ 75%. Still for that read-out and setting: the value for `CC12CC3CC(C)(C1)CC(CC(=O)Nc1cccc4c(=O)n(CC5CCOCC5)ccc14)(C3)C2` [Compound 820] was ≥ 75%; that for `Cc1cccnc1CN1CCc2c(NC(=O)CC34CC5CC(CC(C5)C3)C4)cccc2C1=O` [Compound 825] was ≥ 75%; that for `CN1CCC(Cn2ccc3c(NC(=O)CC45CC6CC(CC(C6)C4)C5)cccc3c2=O)CC1` [Compound 767] was ≥ 75%. For the molecule `O=C(Nc1cccc2c(=O)n(Cc3ccccc3)ccc12)C12CC3CC(CC(F)(C3)C1)C2` [Compound 816, 3-Fluoro-Adamantan-1-yl-N-(2-benzyl-1-oxo-1,2-dihydro-isoquinolin-5-yl)-formamide], the inhibition at 0.1 µM fell in the range of 25 to 50%. On the same count and under the same terms, the value for `CN1CCN(CCN2CCc3c(NC(=O)CC45CC6CC(CC(C6)C4)C5)cccc3C2=O)CC1` [Compound 842] was ≥ 75%; that for `CC12CC3CC(C)(C1)CC(CC(=O)Nc1cccc4c(=O)[nH]ccc14)(C3)C2` [Compound 841] was ≥ 75%. For `O=C(CC12CC3CC(CC(C3)C1)C2)Nc1cccc2c1CCN(Cc1ccccn1)C2=O` [Compound 795], the inhibition at 0.1 µM is ≥ 75%. In the case of `CC12CC3CC(C)(C1)CC(CC(=O)Nc1cccc4c1CCN(CCCN1CCOCC1)C4=O)(C3)C2` [Compound 822], the inhibition at 0.1 µM is ≥ 75%. On to `O=C(CC12CC3CC(CC(C3)C1)C2)Nc1cccc2c1CCN(CCCN1CCOCC1)C2=O` [Compound 876], for which the inhibition at 0.1 µM is ≥ 75%. Same read-out and setting: the value for `CC(C)(C)OC(=O)N1CCCC1Cn1ccc2c(NC(=O)CC34CC5CC(CC(C5)C3)C4)cccc2c1=O` (stereo not shown) [Compound 773] was ≥ 75%; that for `CC(C)(C)OC(=O)N1CCC[C@@H]1Cn1ccc2c(NC(=O)CC34CC5CC(CC(C5)C3)C4)cccc2c1=O` [Compound 774] was ≥ 75%. The molecule `CC12CC3CC(C)(C1)CC(CC(=O)Nc1cccc4c(=O)n(CCc5ccccn5)ccc14)(C3)C2` [Compound 752] had an inhibition at 0.1 µM of 50 to 75%. For `O=C(CC12CC3CC(CC(C3)C1)C2)Nc1cccc2c(=O)n(CCCn3ccnc3)ccc12` [Compound 824], the inhibition at 0.1 µM was 50 to 75%. For `CC12CC3CC(C)(C1)CC(CC(=O)Nc1cccc4c(=O)n(Cc5c(F)cccc5F)ccc14)(C3)C2` [Compound 835], the inhibition at 0.1 µM is ≥ 75%. Take `O=C(CC12CC3CC(CC(C3)C1)C2)Nc1cccc2c(=O)n(Cc3ccc4c(c3)OCO4)ccc12` [Compound 779]: the inhibition at 0.1 µM is ≥ 75%. For `CN1CCC(CN2CCc3c(NC(=O)CC45CC6CC(CC(C6)C4)C5)cccc3C2=O)CC1` [Compound 794], the inhibition at 0.1 µM is ≥ 75%. With `CC(C)Cn1ccc2c(NC(=O)CC34CC5CC(CC(C5)C3)C4)cccc2c1=O` [Compound 871], the inhibition at 0.1 µM is ≥ 75%. Regarding `O=C(CC12CC3CC(CC(C3)C1)C2)Nc1cccc2c1CCN(CCCN1CCCC1)C2=O` [Compound 880], the inhibition at 0.1 µM is ≥ 75%. As to `CC12CC3CC(C)(C1)CC(CC(=O)Nc1cccc4c(=O)n(Cc5ccco5)ccc14)(C3)C2` [Compound 760], the inhibition at 0.1 µM lay within 25 to 50%.

As for `O=C(CC12CC3CC(CC(C3)C1)C2)Nc1cccc2c(=O)n(CCc3ccncc3)ccc12` [Compound 784], the inhibition at 0.1 µM is ≥ 75%. Consider `O=C(CC12CC3CC(CC(C3)C1)C2)Nc1cccc2c(=O)n(CCN3CCCC3)ccc12` [Compound 783], for which the inhibition at 0.1 µM was ≥ 75%. Consider `CC(c1ccncc1)n1ccc2c(NC(=O)CC34CC5CC(CC(C5)C3)C4)cccc2c1=O` (stereo not shown) [Compound 859], for which the inhibition at 0.1 µM was ≥ 75%.

`CN(C)CCn1ccc2c(NC(=O)CC34CC5CC(C)(CC(C)(C5)C3)C4)cccc2c1=O` [Compound 763]: the inhibition at 0.1 µM lay within 25 to 50%. As to `O=C(CC12CC3CC(CC(C3)C1)C2)Nc1cccc2c1CCN(CCN1CCOCC1)C2=O` [Compound 817], the inhibition at 0.1 µM is ≥ 75%.

Regarding `O=C(CC12CC3CC(CC(C3)C1)C2)Nc1cccc2c1CCN(Cc1ccc3c(c1)OCCO3)C2=O` [Compound 791], the inhibition at 0.1 µM was ≥ 75%. `CC12CC3CC(C)(C1)CC(CC(=O)Nc1cccc4c(=O)n(Cc5cn6ccccc6n5)ccc14)(C3)C2` [Compound 758]: the inhibition at 0.1 µM was ≥ 75%.

Turning to `CC1CNC(CN2CCc3c(NC(=O)CC45CC6CC(CC(C6)C4)C5)cccc3C2=O)CN1` (stereo not shown) [Compound 806], the inhibition at 0.1 µM is ≥ 75%. Turning to `O=C(CC12CC3CC(CC(C3)C1)C2)Nc1cccc2c1CCN(Cc1ccccc1F)C2=O` [Compound 790], the inhibition at 0.1 µM is ≥ 75%. With `NC(=O)[C@H](Cc1c[nH]cn1)n1ccc2c(NC(=O)CC34CC5CC(CC(C5)C3)C4)cccc2c1=O` [Compound 882], the inhibition at 0.1 µM is ≥ 75%. For `CCN1CCCC1CN1CCc2c(NC(=O)CC34CC5CC(CC(C5)C3)C4)cccc2C1=O` (stereo not shown) [Compound 834], the inhibition at 0.1 µM is ≥ 75%. For `CC12CC3CC(C)(C1)CC(CC(=O)Nc1cccc4c(=O)n(Cc5ccc6c(c5)OCO6)ccc14)(C3)C2` [Compound 821], the inhibition at 0.1 µM is ≥ 75%. As to `C[C@@H](c1ccccc1)n1ccc2c(NC(=O)CC34CC5CC(C)(CC(C)(C5)C3)C4)cccc2c1=O` [Compound 818], the inhibition at 0.1 µM lay in the range of 50 to 75%. For the molecule `CC1CN(CCn2ccc3c(NC(=O)CC45CC6CC(CC(C6)C4)C5)cccc3c2=O)CC(C)O1` (stereo not shown) [Compound 869], the inhibition at 0.1 µM fell in the range of 50 to 75%.

Molecule `CC12CC3CC(C)(C1)CC(CC(=O)Nc1cccc4c1CCN(CCN1CCOCC1)C4=O)(C3)C2` [Compound 815] came in with an inhibition at 0.1 µM of 50 to 75%.

Staying with this test, now noted: at 0.3 μM (plus symbols).
As for `CC12CC3CC(C)(C1)CC(CC(=O)Nc1cccc4c(=O)n(C(CO)CO)ccc14)(C3)C2` [Compound 895], the inhibition at 0.3 µM is ≥ 75%. `O=C(CC12CC3CC(CC(C3)C1)C2)Nc1cccc2c1CCN(Cc1ccc(F)cc1)C2=O` [Compound 704]: the inhibition at 0.3 µM was ≥ 75%. As for `O=C(CC12CC3CC(CC(C3)C1)C2)Nc1cccc2c(=O)n(Cc3ccccc3)ccc12` [Compound 701, 2-adamantan-1-yl-N-(2-benzyl-1-oxo-1,2-dihydro-isoquinolin-5-yl)-acetamide], the inhibition at 0.3 µM is ≥ 75%. On the same count and under the same terms, for `CC12CC3CC(C)(C1)CC(CC(=O)Nc1cccc4c(=O)n(CCCN5CCOCC5)ccc14)(C3)C2` [Compound 892] the value was ≥ 75%. For `Cc1nn(C)c(C)c1Cn1ccc2c(NC(=O)CC34CC5CC(CC(C5)C3)C4)cccc2c1=O` [Compound 718], the inhibition at 0.3 µM was ≥ 75%. On to `CN(C)CCn1ccc2c(NC(=O)CC34CC5CC(CC(C5)C3)C4)cccc2c1=O` [Compound 736], for which the inhibition at 0.3 µM was ≥ 75%.

Take `CCN1CCCC1Cn1ccc2c(NC(=O)CC34CC5CC(CC(C5)C3)C4)cccc2c1=O` (stereo not shown) [Compound 750]: the inhibition at 0.3 µM was ≥ 75%. Regarding `Cc1cc(Cn2ccc3c(NC(=O)CC45CC6CC(C)(CC(C)(C6)C4)C5)cccc3c2=O)nn1C` [Compound 745], the inhibition at 0.3 µM was ≥ 75%. Regarding `O=C(CC12CC3CC(CC(C3)C1)C2)Nc1cccc2c(=O)n(CC3COCCO3)ccc12` (stereo not shown) [Compound 724], the inhibition at 0.3 µM is ≥ 75%. As to `C=Cn1ccc2c(N(C)C(=O)CC34CC5CC(CC(C5)C3)C4)cccc2c1=O` [Compound 891], the inhibition at 0.3 µM lay in the range of 50 to 75%. With `O=C(CC12CC3CC(CC(C3)C1)C2)Nc1cccc2c(=O)n(CC3COc4ccccc4O3)ccc12` (stereo not shown) [Compound 734], the inhibition at 0.3 µM is ≥ 75%.

With `Cc1nn(-c2ccccc2)nc1Cn1ccc2c(NC(=O)CC34CC5CC(CC(C5)C3)C4)cccc2c1=O` [Compound 738], the inhibition at 0.3 µM is ≥ 75%.

As to `Cc1ccccc1Cn1ccc2c(NC(=O)CC34CC5CC(CC(C5)C3)C4)cccc2c1=O` [Compound 723], the inhibition at 0.3 µM is ≥ 75%. Turning to `O=C(CC12CC3CC(CC(C3)C1)C2)Nc1cccc2c(=O)n(Cc3ccccc3Cl)ccc12` [Compound 708], the inhibition at 0.3 µM is ≥ 75%.

In the case of `CC12CC3CC(C)(C1)CC(CC(=O)Nc1cccc4c(=O)n(Cc5ccccc5F)ccc14)(C3)C2` [Compound 743], the inhibition at 0.3 µM is ≥ 75%. Regarding `O=C(CC12CC3CC(CC(C3)C1)C2)Nc1cccc2c1CCN(Cc1ccco1)C2=O` [Compound 730], the inhibition at 0.3 µM was ≥ 75%. With `O=C(CC12CC3CC(CC(C3)C1)C2)Nc1cccc2c(=O)n(Cc3ccc(F)c(F)c3)ccc12` [Compound 735], the inhibition at 0.3 µM is ≥ 75%.
